Data taken from ChEMBL document CHEMBL5107992, “Development of potent non-acylhydrazone inhibitors of intestinal sodium-dependent phosphate transport protein 2b (NaPi2b)” (Bioorg Med Chem, 2022).
≈ marks a conversion by molar mass, not a printed value.

Legend:
[1] = biological target: T1, Sodium-dependent phosphate transport protein 2B (Homo sapiens, UniProt O95436); experiment: Inhibition of human NaPi2b transfected in human KJMGER8 cells assessed as reduction in H2[33P]O4 uptake incubated for 60 mins by TopCount scintillation counting method; format: cell-based
T1 sequence (O95436 whole entry): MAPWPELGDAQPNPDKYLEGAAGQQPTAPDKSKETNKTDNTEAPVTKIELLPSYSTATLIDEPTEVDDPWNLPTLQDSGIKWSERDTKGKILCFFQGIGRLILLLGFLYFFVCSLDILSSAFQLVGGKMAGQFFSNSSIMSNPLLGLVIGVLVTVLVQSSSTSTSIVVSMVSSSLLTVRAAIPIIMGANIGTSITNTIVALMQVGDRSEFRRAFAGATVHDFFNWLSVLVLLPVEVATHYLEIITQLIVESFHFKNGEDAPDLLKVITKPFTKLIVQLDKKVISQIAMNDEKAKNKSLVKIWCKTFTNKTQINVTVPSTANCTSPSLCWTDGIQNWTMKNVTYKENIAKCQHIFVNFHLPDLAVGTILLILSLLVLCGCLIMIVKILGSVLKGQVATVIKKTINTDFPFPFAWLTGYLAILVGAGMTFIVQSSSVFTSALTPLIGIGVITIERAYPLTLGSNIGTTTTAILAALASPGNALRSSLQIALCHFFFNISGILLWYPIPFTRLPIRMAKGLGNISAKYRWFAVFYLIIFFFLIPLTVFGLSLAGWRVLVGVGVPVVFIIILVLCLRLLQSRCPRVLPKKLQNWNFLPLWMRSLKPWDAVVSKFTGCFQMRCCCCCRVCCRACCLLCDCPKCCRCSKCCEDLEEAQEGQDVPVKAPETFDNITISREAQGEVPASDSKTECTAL

[2] = Aqueous solubility of compound in PBS buffer at pH 7.4; format: physicochemical
[3] = Membrane permeability of compound; format: ADME; conditions: not told; read-out: permeability
[4] = Aqueous solubility of compound in PBS buffer at pH 6; format: physicochemical
[5] = Intestinal availability in rat at 3 mg/kg, po measured after 120 mins by LC/MS-MS analysis; format: ADME, organism-based; conditions: in vivo, 2 h
[6] = Intestinal availability in Sprague-Dawley rat; format: ADME

Row | IC50 [1] [nM] | solubility [2] [µM] | SMILES | further results
1 | 1400 | 81 (≈ 56.6 µg/mL) | CC1(C)CCc2c(sc(NC(=O)c3cccc(COCCOCCOCCOCCOCCOCCO)c3)c2C(=O)Nc2ccccc2)C1 | 
2 | < 100 | 115 (≈ 95.8 µg/mL) | CC1(C)CCc2c(sc(NC(=O)c3cccc(OCCOCCOCCOCCOCCOCCO)c3)c2C(=O)Nc2ccc(CCc3ccc(C(=O)O)cc3)cc2)C1 | 
3 | 14 | 96 (≈ 80.5 µg/mL) | Cc1nnc(-c2ccc(CCc3ccc(NC(=O)c4c(NC(=O)c5cccc(CN(C)CCOCCOCCOCCC(=O)O)c5)sc5c4CCC(C)(C)C5)cc3)cc2)o1 | Papp [3]: < 0.09 ×10⁻⁶ cm/s; solubility [4]: 52 µM (≈ 43.6 µg/mL); FaFg [5]: 5.9%
4 | 71 | 116 (≈ 107 µg/mL) | COC(=O)c1ccc(CCc2ccc(NC(=O)c3c(NC(=O)c4cccc(OCCOCCOCCOCCOCCOCCOCC(=O)O)c4)sc4c3CCC(C)(C)C4)cc2C)cc1 | 
5 | < 100 | 0.48 (≈ 0.379 µg/mL) | CC1(C)CCc2c(sc(NC(=O)c3cccc(COCCOCCOCCOCCOCCOCCO)c3)c2C(=O)Nc2ccc(Cc3ccccc3)cc2)C1 | 
6 | 61 | 156 (≈ 127 µg/mL) | Cc1nnc(-c2ccc(CCc3ccc(NC(=O)c4c(NC(=O)c5cccc(COCCOCCOCCOCC(=O)O)c5)sc5c4CCC(C)(C)C5)cc3)cc2)o1 | 
7 | 43 | 79 (≈ 73.3 µg/mL) | Cc1cc(NC(=O)c2c(NC(=O)c3cccc(OCCOCCOCCOCCOCCOCCOCC(=O)O)c3)sc3c2CCC(C)(C)C3)ccc1CCc1ccc(-c2ncco2)cc1 | 
8 | 24 | 91 (≈ 96.6 µg/mL) | Cc1nnc(-c2ccc(CCc3ccc(NC(=O)c4c(NC(=O)c5cccc(CSCCOCCOCCOCCOCCOCCOCCOCCOCCC(=O)O)c5)sc5c4CCC(C)(C)C5)cc3)cc2)o1 | 
9 | 103 | 62 (≈ 58.5 µg/mL) | Cc1nnc(-c2ccc(CCc3ccc(NC(=O)c4c(NC(=O)c5cccc(COCCOCCOCCOCCOCCOCCOCC(=O)O)c5)sc5c4CCC(C)(C)C5)cc3)cc2)o1 | 
10 | 1140 | 2.3 (≈ 1.68 µg/mL) | COc1ccc(NC(=O)c2c(NC(=O)c3cccc(COCCOCCOCCOCCOCCOCCO)c3)sc3c2CCC(C)(C)C3)cc1 | 
11 | 2880 | 36 (≈ 21.8 µg/mL) | CC1(C)CCc2c(sc3nc(-c4cccc(COCCOCCOCCOCCOCCOCCO)c4)oc(=O)c23)C1 | 
12 | < 100 | 0.72 (≈ 0.63 µg/mL) | COC(=O)c1ccc(CCc2ccc(NC(=O)c3c(NC(=O)c4cccc(COCCOCCOCCOCCOCCOCCO)c4)sc4c3CCC(C)(C)C4)cc2C)cc1 | 
13 | < 100 | 0.39 (≈ 0.284 µg/mL) | CCc1ccc(NC(=O)c2c(NC(=O)c3cccc(COCCOCCOCCOCCOCCOCCO)c3)sc3c2CCC(C)(C)C3)cc1 | 
14 |  |  | CCC(CC)N(CCN(C)C(=O)CCC(=O)NCCOCCOCCOCCO)Cc1cccc(C(=O)Nc2sc3c(c2C(=O)c2cnn(-c4ccc(Cl)c(C(F)(F)F)c4)c2)CCC(C)(C)C3)c1 | FaFg [6]: 0.2%
15 | < 100 | 1.6 (≈ 1.36 µg/mL) | COC(=O)c1ccc(CCc2ccc(NC(=O)c3c(NC(=O)c4cccc(OCCOCCOCCOCCOCCOCCO)c4)sc4c3CCC(C)(C)C4)cc2)cc1 | 
16 | 288 | 87 (≈ 82.1 µg/mL) | Cc1cc(NC(=O)c2c(NC(=O)c3cccc(OCCOCCOCCOCCOCCOCCOCC(=O)O)c3)sc3c2CCC(C)(C)C3)ccc1CCc1ccc(-c2nccs2)cc1 | 
17 |  |  | COCCN(CCOCCOCCOCCOCCOCCOCc1cccc(C(=O)Nc2sc3c(c2C(=O)N/N=C/c2ccc(Cl)c(C(F)(F)F)c2)CCC(C)(C)C3)c1)CC(=O)O | FaFg [6]: 0.1%
